Assays:
p38α = target: T1, p38α (Homo sapiens, UniProt Q16539); experiment: p38 Kinase Assay (ATF-2 phosphorylation ELISA); assay type: biochemical; details: 2 h pre-incubation, ATP 250 μM, 1% DMSO; read-out: p38α inhibition (IC50 values)
T1 construct: purchased Calbiochem 559324; host or cells: E. coli
Protocol: Human recombinant p38 enzyme expressed in E. coli and activated by incubation with MKK6 enzyme (Calbiochem #559324) is used as source of enzyme activity.
The assay is carried in high binding, clear, flat bottom 96 well assay plates which have been coated with recombinant ATF-2 (Biosource #PHF0043). Test compounds are incubated with p38 kinase for 2 h prior to initiating the kinase assay by the addition of ATP to obtain an assay concentration of 250 μM. Phosphorylation of ATF-2 is detected and quantified using an ELISA. This consists of sequential incubation in the presence of anti-phospho-ATF2, biotinylated anti-IgG and streptavidin-HRP. Incubation with an HRP chromogenic substrate (TMB) results in absorbance that is proportional to the amount of phosphorylated substrate produced. Absorbance is detected using a multiwell plate reader.
Compounds are diluted in DMSO prior to addition to assay buffer, the final DMSO concentration in the assay being 1%.
The IC50 is defined as the concentration at which a given compound achieves 50% inhibition of control.

[1] = system: TNFα release from LPS activated THP-1 cells or PBMC's; experiment: p38 Functional Assay (TNFα release after LPS); assay type: cell-based; details: Homo sapiens, 1 h pre-treatment, 0.3% DMSO, read-out: EC50 (inhibition of TNFα release)
Protocol: Inhibition of cellular p38 depresses the release of TNFα, a functional response which is quantified by measurement of the amount of TNFα in the supernatants of LPS activated THP-1 cells (an immortalised monocytic cell line) or peripheral blood mononuclear cells (PBMC's) isolated from freshly drawn human blood.
Cells seeded in 96 well plates are pre-treated by the addition of p38 inhibitors for 1 h followed by addition of lipopolysaccharide (LPS) to activate cytokine production and release. The amount of TNFα released into the cell supernatants is quantified using an R&D Systems enzyme linked immunosorbant assay (ELISA) kit (product DY210) following the manufacturers instructions.
Compounds are diluted in DMSO prior to addition, the final DMSO concentration in the assay being 0.3%. The EC50 is defined as the concentration at which a given compound achieves 50% inhibition of the control.

[2] = system: BAL cell influx induced by tobacco smoke; experiment: Tobacco smoke induced pulmonary inflammation, mouse model of COPD inflammation; assay type: in vivo; details: mice, intranasal, 30, 100 or 300 μg/kg, 4 days TS, BAL 24 h after final exposure (FIG. 1)
Protocol: Pre-clinical mouse model of COPD inflammation—Tobacco smoke induced pulmonary inflammation. […] In this exposure protocol, mice were exposed in groups of 5 in individual clear polycarbonate chambers (27 cm×16 cm×12 cm). The TS from the cigarettes was allowed to enter the exposure chambers at a flow rate of 100 ml/min. In order to minimise any potential problems caused by repeated exposure to a high level of TS (6 cigarettes), the exposure of the mice to TS was increased gradually over the exposure period to a maximum of 6 cigarettes. The exposure schedule used for 4 days was as follows: Bronchoalveolar lavage was performed as follows: the trachea was cannulated using a Portex nylon intravenous cannula (pink luer fitting) shortened to approximately 8 mm. […] The cell pellet was re-suspended in a known volume of PBS and total cell numbers calculated by counting a stained (Turks stain) aliquot under a microscope using a haemocytometer. […] When dried and cover-slipped, differential cells were counted using light microscopy. Up to 400 cells were counted by unbiased operator using light microscopy. […] All results are presented as individual data points for each animal and the mean value was calculated for each group. […] Percentage inhibitions were automatically calculated within the Excel spreadsheets for the cell data using the formula below: […]

T1 sequence (Q16539 whole entry): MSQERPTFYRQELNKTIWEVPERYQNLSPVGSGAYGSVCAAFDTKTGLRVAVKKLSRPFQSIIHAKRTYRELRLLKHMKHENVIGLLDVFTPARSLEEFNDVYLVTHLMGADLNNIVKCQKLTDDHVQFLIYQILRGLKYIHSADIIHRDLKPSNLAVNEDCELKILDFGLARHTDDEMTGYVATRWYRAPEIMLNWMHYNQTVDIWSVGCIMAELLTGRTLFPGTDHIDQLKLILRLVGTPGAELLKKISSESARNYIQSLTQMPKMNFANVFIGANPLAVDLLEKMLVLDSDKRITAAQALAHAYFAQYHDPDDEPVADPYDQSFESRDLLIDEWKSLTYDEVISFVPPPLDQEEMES

IC50 (p38α): 10 to 100 nM
Compound: Cc1ccc(-n2nc(C(C)(C)C)cc2NC(=O)Nc2ccc(Sc3ccc4nnc(-c5cccc(OCCN6CCOCC6)c5)n4c3)cc2)cc1 [Example 10, 1-(5-tert-Butyl-2-p-tolyl-2H-pyrazol-3-yl)-3-(4-{3-[3-(2-morpholin-4-yl-ethoxy)-phenyl]-[1,2,4]triazolo[4,3-a]pyridin-6-ylsulfanyl}-phenyl)-urea]
EC50 [1]: 10 to 100 nM | BAL cell influx induced by TS [2]: significantly inhibited

From patent publication US8557797B2, “Triazolopyridine derivatives and their therapeutic use” (Chiesi Farmaceutici S.p.A., priority 2009, dated 2013)
